Experiments:
Assay type in all cases: cell-based
[1] = target: T1, PPARα (Homo sapiens, UniProt Q07869); assay: Chimeric Gal4DBD-PPARαLBD receptor / UASg-luciferase reporter gene assay in HeLa cells
T1 construct: expressed in transfected cells; host or cells: HeLa
T1 sequence (Q07869 239-466 limits assumed): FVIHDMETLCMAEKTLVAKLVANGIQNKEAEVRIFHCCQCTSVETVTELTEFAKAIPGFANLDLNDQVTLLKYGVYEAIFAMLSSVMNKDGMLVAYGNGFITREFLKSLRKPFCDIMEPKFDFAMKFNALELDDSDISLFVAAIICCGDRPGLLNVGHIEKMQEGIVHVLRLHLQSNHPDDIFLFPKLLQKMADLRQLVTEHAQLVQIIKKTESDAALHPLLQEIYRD
Description: (§1) In an example of such a reporter gene assay, a plasmid containing chimeric Ga14DBD-PPARLBD receptor cDNA was constructed by excising the ligand binding domain (LBD) of full length PPARγ and PPARα and ligating the resulting fragments in frame to the Ga14-DNA binding domain (DBD) of Saccharomyces cerevisiae in a pM vector (Clontech). Specifically, to construct Ga14DBD-PPARγLBD plasmid, pSG5 expression vector (Stratagene) containing full length PPARγ was excised with Rsa I and blunt ligated to Hind III site of pMGa14DBD expression plasmid (Clontech). To construct Ga14DBD-PPARαLBD plasmid, pSG5 expression vector (Stratagene) containing full length PPARα was excised with BstU I and BamH I and blunt-end ligated in frame to BamH I site of pMGa14DBD expression plasmid (Clontech). […] Ga14 DBD binds very strongly to the exogenous UASg promoter, thereby giving rise to a sensitive and specific assay. To measure PPARγ and PPARα agonist activity, HeLa cells were grown in 24-well microtiter plates and then transiently co-transfected with the two plasmids (chimeric PPAR receptor and UASg reporter gene) using Lipofectamine (Invitrogen). […] Concurrently, cells exposed to known PPAR ligands served as positive controls. Replicate wells, exposed to the vehicle solvent (i.e., ethanol or methanol) in which herbal extracts were dissolved, were used as negative controls. After the 40 hr incubation period, cells were rinsed with phosphate buffered saline (PBS), lysis buffer was added, and cell lysates were collected for measurement of luciferase activity using a luminometer. […] All data points are in triplicate. The data points represent the mean of triplicate wells. Luciferase activity in such an assay accurately reflects the activity of any ligands on PPARγ or PPARα.

[2] = target: T2, PPARγ (Homo sapiens, UniProt P37231); assay: Chimeric Gal4DBD-PPARγLBD receptor / UASg-luciferase reporter gene assay in HeLa cells
T2 construct: expressed in transfected cells; host or cells: HeLa
T2 sequence (P37231 238-503 limits assumed): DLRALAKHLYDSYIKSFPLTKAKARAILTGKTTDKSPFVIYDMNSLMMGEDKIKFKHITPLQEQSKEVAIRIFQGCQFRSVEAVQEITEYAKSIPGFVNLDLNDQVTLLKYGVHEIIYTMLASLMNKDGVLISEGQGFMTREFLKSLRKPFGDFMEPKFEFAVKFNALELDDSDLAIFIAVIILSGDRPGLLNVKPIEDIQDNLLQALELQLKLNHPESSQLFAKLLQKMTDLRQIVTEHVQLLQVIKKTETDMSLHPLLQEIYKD
Description: as §1

[3] = target: T3, human androgen receptor (Homo sapiens, UniProt P10275); assay: AR (ARE)2-Luc luciferase reporter gene assay in HeLa cells
T3 construct: expressed in transfected cells; host or cells: HeLa
T3 sequence (P10275 1-920): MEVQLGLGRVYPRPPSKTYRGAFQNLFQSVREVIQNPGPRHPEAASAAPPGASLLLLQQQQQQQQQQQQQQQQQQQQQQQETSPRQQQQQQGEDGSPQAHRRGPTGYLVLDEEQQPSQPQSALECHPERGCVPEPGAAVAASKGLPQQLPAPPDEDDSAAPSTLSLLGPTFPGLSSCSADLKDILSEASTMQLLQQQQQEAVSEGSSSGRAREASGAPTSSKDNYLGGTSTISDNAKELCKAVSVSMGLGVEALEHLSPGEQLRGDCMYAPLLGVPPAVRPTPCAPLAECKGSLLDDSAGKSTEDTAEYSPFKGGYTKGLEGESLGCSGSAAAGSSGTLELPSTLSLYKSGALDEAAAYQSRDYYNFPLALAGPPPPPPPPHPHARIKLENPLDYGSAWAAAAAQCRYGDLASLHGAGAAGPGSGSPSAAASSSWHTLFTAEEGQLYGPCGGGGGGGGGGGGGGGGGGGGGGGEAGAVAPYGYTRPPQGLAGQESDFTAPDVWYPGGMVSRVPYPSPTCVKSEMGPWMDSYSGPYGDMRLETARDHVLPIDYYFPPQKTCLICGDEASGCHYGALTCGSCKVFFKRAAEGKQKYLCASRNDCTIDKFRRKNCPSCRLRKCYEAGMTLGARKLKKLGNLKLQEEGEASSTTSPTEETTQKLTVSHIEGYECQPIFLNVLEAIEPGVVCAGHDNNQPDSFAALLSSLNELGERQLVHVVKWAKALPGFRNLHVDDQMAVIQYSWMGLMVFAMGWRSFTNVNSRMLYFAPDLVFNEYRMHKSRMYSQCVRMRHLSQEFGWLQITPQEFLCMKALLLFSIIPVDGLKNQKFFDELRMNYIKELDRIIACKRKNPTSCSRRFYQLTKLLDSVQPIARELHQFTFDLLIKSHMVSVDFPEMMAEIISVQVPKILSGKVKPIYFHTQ
Method: The capacity of HQ extract to activate other steroid receptors, namely AR, PR, GR, ERα and ERβ was examined. […] The (ARE)2-Luc plasmid consist of two repeats of Androgen Response Element (ARE) cloned upstream of the Luciferase Reporter gene in a pGL3-Basic vector (Promega).
AR, PR, GR and ERα and […] were determined by comparing luciferase activity in test cells with control cells exposed to vehicle (i.e., ethanol or methanol) only, analogous to the determination of PPAR activity as described in the previous examples.

With COc1ccc(-c2coc3cc(O)ccc3c2=O)cc1O [calycosin, 3′,7-Dihydroxy-4′-methoxyisoflavone] as the molecule, how does the “Luciferase activity (Fold over vehicle ± SE) PPARα/WY14643 (30 × 10^−6M)” value ([1]; calycosin 3 ×10^−6 g/mL) read?
The value was 197 ± 20.6 Fold.

And the “Luciferase activity (Fold over vehicle ± SE) PPARα/WY14643 (30 × 10^−6M)” value ([1]; calycosin 10 ×10^−6 g/mL)?
Its value is 257 ± 8.85 Fold.

And the “Luciferase activity (Fold over vehicle ± SE) PPARα/WY14643 (30 × 10^−6M)” value ([1]; calycosin 30 ×10^−6 g/mL)?
Its value is 294 ± 39.2 Fold.

And the “increase of the activity of maximal doses of PPARα agonist” value ([1]; with WY14643 30×10^−6M)?
The value was 1.8 fold.

And the “PPARγ activity comparable to % maximal activity of pioglitazone” value ([2]; 30×10^−6 g/ml)?
Its value is ~50%.

And the “maximal fold PPARγ activity” value ([2]; 30×10^−6 g/ml)?
Its value is 40 fold.

What about the “Luciferase activity (Fold over vehicle ± SE) PPARγ/Pioglitazone (30 × 10^−6M)” value ([2]; calycosin 3 ×10^−6 g/mL) of the same molecule?
The value was 105 ± 10.7 Fold.

And the “Luciferase activity (Fold over vehicle ± SE) PPARγ/Pioglitazone (30 × 10^−6M)” value ([2]; calycosin 10 ×10^−6 g/mL)?
Its value is 162 ± 28.5 Fold.

And the “Luciferase activity (Fold over vehicle ± SE) PPARγ/Pioglitazone (30 × 10^−6M)” value ([2]; calycosin 30 ×10^−6 g/mL)?
Its value is 253 ± 30.7 Fold.

What about the “increase of the activity of maximal doses of PPARγ agonist” value ([2]; with pioglitazone 30×10^−6M) of the same molecule?
Its value is 3 fold.

What about the “Luciferase activity (Fold over vehicle ± SE) AR/Dihydrotestosterone (1 × 10^−9M)” value ([3]; calycosin 3 ×10^−6 g/mL) of the same molecule?
Its value is 1997 ± 96.1 Fold.

What about the “Luciferase activity (Fold over vehicle ± SE) AR/Dihydrotestosterone (1 × 10^−9M)” value ([3]; calycosin 10 ×10^−6 g/mL) of the same molecule?
The value was 4080 ± 5.67 Fold.

And the “Luciferase activity (Fold over vehicle ± SE) AR/Dihydrotestosterone (1 × 10^−9M)” value ([3]; calycosin 30 ×10^−6 g/mL)?
Its value is 4502 ± 995 Fold.

And the “increase of the activity of maximal doses of AR agonist” value ([3]; with dihydrotestosterone 1×10^−9M)?
Its value is 5.8 fold.

How did the “PPARα activity comparable to % maximal activity of W14643” value ([1]; 10×10^−6 g/ml) turn out when O=c1c(-c2ccc(O)cc2)coc2cc(O)ccc12 [daidzein] was run?
Its value is ~73%.

And the “maximal fold PPARα activity” value ([1]; 10×10^−6 g/ml)?
The value was 8 fold.

What about the “Luciferase activity (Fold over vehicle ± SE) PPARα/WY14643 (30 × 10^−6M)” value ([1]; daidzein 5 ×10^−6 g/mL) of the same molecule?
The value was 58.2 ± 14.9 Fold.

What about the “Luciferase activity (Fold over vehicle ± SE) PPARα/WY14643 (30 × 10^−6M)” value ([1]; daidzein 10 ×10^−6 g/mL) of the same molecule?
The value was 71.3 ± 9.90 Fold.

And the “Luciferase activity (Fold over vehicle ± SE) PPARα/WY14643 (30 × 10^−6M)” value ([1]; daidzein 20 ×10^−6 g/mL)?
Its value is 53.4 ± 13.3 Fold.

And the “PPARγ activity comparable to % maximal activity of pioglitazone” value ([2]; 20×10^−6 g/m)?
The value was ~22%.

And the “maximal fold PPARγ activity” value ([2]; 20×10^−6 g/m)?
The value was 20 fold.

And the “Luciferase activity (Fold over vehicle ± SE) AR/Dihydrotestosterone (1 × 10^−9M)” value ([3]; daidzein 5 ×10^−6 g/mL)?
Its value is 1703 ± 154 Fold.

What about the “Luciferase activity (Fold over vehicle ± SE) AR/Dihydrotestosterone (1 × 10^−9M)” value ([3]; daidzein 10 ×10^−6 g/mL) of the same molecule?
Its value is 1684 ± 146 Fold.

What about the “Luciferase activity (Fold over vehicle ± SE) AR/Dihydrotestosterone (1 × 10^−9M)” value ([3]; daidzein 20 ×10^−6 g/mL) of the same molecule?
Its value is 1547 ± 257 Fold.
